Results as given in US10040798B2, “Pyrrolopyridazine inhibitors of IRAK4 activity” (MERCK SHARP & DOHME CORP., priority 2015, dated 2018).
pIC50: −log10 of the molar value. Structures can show the parent of a compound that is named as a salt.

Each compound was assayed against IRAK4 (Homo sapiens (Human), UniProt Q9NWZ3) (assay: IRAK4 Kinase Assay (IMAP fluorescence polarization)). Conditions: 0.5 nM GST tagged IRAK4, 100 μM ATP, 30 minutes at 25° C., IMAP FP.
IRAK4, sequence (Q9NWZ3 whole entry): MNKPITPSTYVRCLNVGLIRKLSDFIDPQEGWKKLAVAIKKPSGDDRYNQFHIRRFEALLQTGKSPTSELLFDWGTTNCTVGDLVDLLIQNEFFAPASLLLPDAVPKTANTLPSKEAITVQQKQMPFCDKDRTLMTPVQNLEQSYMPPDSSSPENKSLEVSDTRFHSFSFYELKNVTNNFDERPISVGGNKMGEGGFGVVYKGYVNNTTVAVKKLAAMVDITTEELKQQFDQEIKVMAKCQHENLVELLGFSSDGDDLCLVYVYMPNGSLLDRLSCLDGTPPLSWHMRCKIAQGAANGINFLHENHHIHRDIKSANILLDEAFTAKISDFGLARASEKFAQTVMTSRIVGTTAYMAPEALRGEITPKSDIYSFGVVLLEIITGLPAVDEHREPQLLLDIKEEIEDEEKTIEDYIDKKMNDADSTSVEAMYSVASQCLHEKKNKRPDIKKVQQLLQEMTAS
Format: biochemical
Method: The kinase activity of IRAK4 is determined by its ability to catalyze the phosphorylation of a fluorescent polypeptide substrate. The extent of phosphorylation is measured using the IMAP technology (Molecular Devices) where the phosphorylated fluorescent substrate binds to the large M (III)-based nanoparticles which reduces the rotational speed of the substrate and thus increases its fluorescent polarization (FP).
20 μL reaction mixture contains 10 mM TriHCl, pH 7.2, 0.5 nM GST tagged IRAK4 (SignalChem), 100 nM fluorescent peptide substrate (RP7030, Molecular Devices), 100 μM ATP, 1 mM DDT, 1 mM MgCl2, and 0.01% Tween 20. The reaction is initiated by the addition of ATP. After incubation for 30 minutes at 25° C., 60 μL of Progressive IMAP Reagent (Molecular Devices) is added to stop the reaction. Change in RP7030's FP is determined by a FP reader (Analyst HT, LJL BioSystems).
Compound `Cn1cc(NC(=O)c2ccc3ccc(N4C[C@@H]5CN[C@@H](C5)C4)nn23)c(C(F)(F)F)n1` (single isomer, unassigned) [Example 3, 2-[(1S,5S)- or (1R,5R)-3,6-diazabicyclo[3.2.1]oct-3-yl]-N-[1-methyl-3-(trifluoromethyl)-1H-pyrazol-4-yl]pyrrolo[1,2-b]pyridazine-7-carboxamide] has a pIC50 of 7.07. `Cn1cc(NC(=O)c2ccc3ccc(N4C[C@H]5CN[C@H](C5)C4)nn23)c(C(F)(F)F)n1` (single isomer, unassigned) [Example 4, 2-[(1S,5S)- or (1R,5R)-3,6-diazabicyclo[3.2.1]oct-3-yl]-N-[1-methyl-3-(trifluoromethyl)-1H-pyrazol-4-yl]pyrrolo[1,2-b]pyridazine-7-carboxamide] showed a pIC50 of 6.88. Compound `Cn1cc(NC(=O)c2ccc3ccc(N4C[C@@H]5CC[C@H]4CN5)nn23)c(Cl)n1` (single isomer, unassigned) [Example 33, N-(3-chloro-1-methyl-1H-pyrazol-4-yl)-2-[(1S,4S)- or (1R,4R)-2,5-diazabicyclo[2.2.2]oct-2-yl]pyrrolo[1,2-b]pyridazine-7-carboxamide trifluoroacetate] has a pIC50 of 7.35. `Cn1cc(NC(=O)c2ccc3ccc(N4C[C@H]5CC[C@@H]4CN5)nn23)c(Cl)n1` (single isomer, unassigned) [Example 34, N-(3-chloro-1-methyl-1H-pyrazol-4-yl)-2-[(1S,4S)- or (1R,4R)-2,5-diazabicyclo[2.2.2]oct-2-yl]pyrrolo[1,2-b]pyridazine-7-carboxamide trifluoroacetate] was tested, and the pIC50 was 7.82. Work on `Cn1cc(NC(=O)c2ccc3ccc(N4C[C@@H]5CC[C@H]4CN5)nn23)c(Br)n1` (single isomer, unassigned) [Example 35, N-(3-bromo-1-methyl-1H-pyrazol-4-yl)-2-[(1S,4S)- or (1R,4R)-2,5-diazabicyclo[2.2.2]oct-2-yl]pyrrolo[1,2-b]pyridazine-7-carboxamide trifluoroacetate] yielded a pIC50 of 7.47. `Cn1cc(NC(=O)c2ccc3ccc(N4C[C@H]5CC[C@@H]4CN5)nn23)c(Br)n1` (single isomer, unassigned) [Example 36, N-(3-bromo-1-methyl-1H-pyrazol-4-yl)-2-[(1S,4S)- or (1R,4R)-2,5-diazabicyclo[2.2.2]oct-2-yl]pyrrolo[1,2-b]pyridazine-7-carboxamide trifluoroacetate] showed a pIC50 of 7.66. `Cn1cc(NC(=O)c2ccc3ccc(N4C[C@@H]5CC[C@H]4CN5)nn23)c(C(F)F)n1` (single isomer, unassigned) [Example 37, 2-[(1S,4S)- or (1R,4R)-2,5-diazabicyclo[2.2.2]oct-2-yl]-N-[3-(difluoromethyl)-1-methyl-1H-pyrazol-4-yl]pyrrolo[1,2-b]pyridazine-7-carboxamide trifluoroacetate] showed a pIC50 of 8.52. `Cn1cc(NC(=O)c2ccc3ccc(N4C[C@H]5CC[C@@H]4CN5)nn23)c(C(F)F)n1` (single isomer, unassigned) [Example 38, 2-[(1S,4S)- or (1R,4R)-2,5-diazabicyclo[2.2.2]oct-2-yl]-N-[3-(difluoromethyl)-1-methyl-1H-pyrazol-4-yl]pyrrolo[1,2-b]pyridazine-7-carboxamide trifluoroacetate] showed a pIC50 of 8.70. `Cn1cc(NC(=O)c2ccc3ccc(N[C@@H]4CCCCNC4)nn23)c(C(F)(F)F)n1` (single isomer, unassigned) [Example 39, 2-[(3R)- or (3S)-azepan-3-ylamino]-N-[1-methyl-3-(trifluoromethyl)-1H-pyrazol-4-yl]pyrrolo[1,2-b]pyridazine-7-carboxamide trifluoroacetate] showed a pIC50 of 8.70. In the case of `Cn1cc(NC(=O)c2ccc3ccc(N[C@H]4CCCCNC4)nn23)c(C(F)(F)F)n1` (single isomer, unassigned) [Example 40, 2-[(3R)- or (3S)-azepan-3-ylamino]-N-[1-methyl-3-(trifluoromethyl)-1H-pyrazol-4-yl]pyrrolo[1,2-b]pyridazine-7-carboxamide trifluoroacetate], the pIC50 was 8.70. With `Cn1cc(NC(=O)c2ccc3ccc(N[C@@H]4CCCCNC4)nn23)c(C(F)F)n1` (single isomer, unassigned) [Example 41, 2-[(3R)- or (3S)-azepan-3-ylamino]-N-[3-(difluoromethyl)-1-methyl-1H-pyrazol-4-yl]pyrrolo[1,2-b]pyridazine-7-carboxamide trifluoroacetate] the pIC50 was 9.70. With `Cn1cc(NC(=O)c2ccc3ccc(N[C@H]4CCCCNC4)nn23)c(C(F)F)n1` (single isomer, unassigned) [Example 42, 2-[(3R)- or (3S)-azepan-3-ylamino]-N-[3-(difluoromethyl)-1-methyl-1H-pyrazol-4-yl]pyrrolo[1,2-b]pyridazine-7-carboxamide trifluoroacetate] the pIC50 was 9.52. Work on `Cn1cc(NC(=O)c2ccc3ccc(N4C[C@@H]5CC[C@H]4CN5)nn23)c(C#N)n1` (single isomer, unassigned) [Example 43, N-(3-cyano-1-methyl-1H-pyrazol-4-yl)-2-[(1S,4S)- or (1R,4R)-2,5-diazabicyclo[2.2.2]oct-2-yl]pyrrolo[1,2-b]pyridazine-7-carboxamide trifluoroacetate] yielded a pIC50 of 7.60. With `Cn1cc(NC(=O)c2ccc3ccc(N4C[C@H]5CC[C@@H]4CN5)nn23)c(C#N)n1` (single isomer, unassigned) [Example 44, N-(3-cyano-1-methyl-1H-pyrazol-4-yl)-2-[(1S,4S)- or (1R,4R)-2,5-diazabicyclo[2.2.2]oct-2-yl]pyrrolo[1,2-b]pyridazine-7-carboxamide trifluoroacetate] the pIC50 was 7.30. Compound `Cn1cc(NC(=O)c2ccc3ccc(N4C[C@@H]5CN[C@@H](C5)C4)nn23)c(C(F)F)n1` (single isomer, unassigned) [Example 50, 2-[(1S,5S)- or (1R,5R)-3,6-diazabicyclo[3.2.1]oct-3-yl]-N-[3-(difluoromethyl)-1-methyl-1H-pyrazol-4-yl]pyrrolo[1,2-b]pyridazine-7-carboxamide] has a pIC50 of 8.40. In the case of `Cn1cc(NC(=O)c2ccc3ccc(N4C[C@@H]5CN[C@@H](C5)C4)nn23)c(C(F)F)n1` (single isomer, unassigned) [Example 51, 2-[(1S,5S)- or (1R,5R)-3,6-diazabicyclo[3.2.1]oct-3-yl]-N-[3-(difluoromethyl)-1-methyl-1H-pyrazol-4-yl]pyrrolo[1,2-b]pyridazine-7-carboxamide], the pIC50 was 7.92. In the case of `O=C(Nc1ccsc1Br)c1ccc2ccc(N3C[C@@H]4CC[C@H]3CN4)nn12` (single isomer, unassigned) [Example 78, N-(2-bromothiophen-3-yl)-2-[(1S,4S)- or (1R,4R)-2,5-diazabicyclo[2.2.2]oct-2-yl]pyrrolo[1,2-b]pyridazine-7-carboxamide trifluoroacetate], the pIC50 was 6.16. For `O=C(Nc1ccsc1Br)c1ccc2ccc(N3C[C@H]4CC[C@@H]3CN4)nn12` (single isomer, unassigned) [Example 79, N-(2-bromothiophen-3-yl)-2-[(1S,4S)- or (1R,4R)-2,5-diazabicyclo[2.2.2]oct-2-yl]pyrrolo[1,2-b]pyridazine-7-carboxamide trifluoroacetate], the pIC50 was 6.72. Work on `N#Cc1sccc1NC(=O)c1ccc2ccc(N3C[C@@H]4CC[C@H]3CN4)nn12` (single isomer, unassigned) [Example 80, N-(2-cyanothiophen-3-yl)-2-[(1S,4S)- or (1R,4R)-2,5-diazabicyclo[2.2.2]oct-2-yl]pyrrolo[1,2-b]pyridazine-7-carboxamide formate] yielded a pIC50 of 6.99. `N#Cc1sccc1NC(=O)c1ccc2ccc(N3C[C@H]4CC[C@@H]3CN4)nn12` (single isomer, unassigned) [Example 81, N-(2-cyanothiophen-3-yl)-2-[(1S,4S)- or (1R,4R)-2,5-diazabicyclo[2.2.2]oct-2-yl]pyrrolo[1,2-b]pyridazine-7-carboxamide formate] was tested, and the pIC50 was 6.45. `O=C(Nc1cscc1Cl)c1ccc2ccc(N3C[C@@H]4CC[C@H]3CN4)nn12` (single isomer, unassigned) [Example 83, N-(4-chlorothiophen-3-yl)-2-[(1S,4S)- or (1R,4R)-2,5-diazabicyclo[2.2.2]oct-2-yl]pyrrolo[1,2-b]pyridazine-7-carboxamide trifluoroacetate] gave a pIC50 of 6.73. `O=C(Nc1cscc1Cl)c1ccc2ccc(N3C[C@H]4CC[C@@H]3CN4)nn12` (single isomer, unassigned) [Example 84, N-(4-chlorothiophen-3-yl)-2-[(1S,4S)- or (1R,4R)-2,5-diazabicyclo[2.2.2]oct-2-yl]pyrrolo[1,2-b]pyridazine-7-carboxamide trifluoroacetate] was tested, and the pIC50 was 6.90. Compound `N#Cc1ccccc1NC(=O)c1ccc2ccc(N[C@@H]3CCCCNC3)nn12` (single isomer, unassigned) [Example 108, 2-[(3R)- or (3S)-azepan-3-ylamino]-N-(2-cyanophenyl)pyrrolo [1,2-b]pyridazine-7-carboxamide trifluoroacetate] has a pIC50 of 7.05. `N#Cc1ccccc1NC(=O)c1ccc2ccc(N[C@H]3CCCCNC3)nn12` (single isomer, unassigned) [Example 109, 2-[(3R)- or (3S)-azepan-3-ylamino]-N-(2-cyanophenyl)pyrrolo [1,2-b]pyridazine-7-carboxamide trifluoroacetate] was tested, and the pIC50 was 8.15. In the case of `O=C(Nc1ccsc1C(F)(F)F)c1ccc2ccc(N3C[C@@H]4CC[C@H]3CN4)nn12` (single isomer, unassigned) [Example 113, 2-[(1S,4S)- or (1R,4R)-2,5-diazabicyclo[2.2.2]oct-2-yl]-N-[2-(trifluoromethyl)thiophen-3-yl]pyrrolo[1,2-b]pyridazine-7-carboxamide trifluoroacetate], the pIC50 was 5.92.
